Laboratory results reported in patent US7881777B2, “Method and apparatus for performing intra-operative angiography” (National Research Council of Canada, priority 1999, dated 2011).

Test system: mouse femoral artery
Assay: Mouse femoral vessel diameter by ICG fluorescence angiography under topically applied acetylcholine
Settings: mouse femoral artery in vivo
Procedure: In this example, a fluorescent dye (ICG) was injected into the vascular bed (via jugular cannulation in the mouse: via an infusion line in the langendorff perfused heart) and excited using radiation from a laser source (806 nm). The fluorescence (radiation) emitted by the dye (830 nm) was captured as a series of angiograms using a CCD camera. The camera relayed the angiograms to analog-to-digital conversion software running on a PC that digitized the angiograms. The digitized images were then analyzed both qualitatively (by viewing the monitor) and quantitatively. One example of quantitative evaluation that was undertaken was the determination of the mouse femoral artery diameter using software comprising a sub-pixel edge detection system running on the PC.
The foregoing fluorescence imaging technique was used on the mouse femoral artery in vivo. A more detailed explanation of each component of the apparatus, preparation of the animal, injection of ICG, and analytical method, are set forth in the following paragraphs.
The mouse was prepared by inducing anesthesia in an induction box using isoflurane (Ohmeda Pharmaceutical Products, Mississauga, ON, Canada) (4% in medical air, 4 L/min) and maintained by use of a facemask providing isoflurane at a rate of 1.5-2.0% in medical air (400 mL/min). During the experiment, the mouse was positioned on a thermostatted water blanket, with body temperature being monitored by a rectal temperature probe. To facilitate imaging of the vessels of interest, the thoracic, abdominal and inguinal areas of the mouse were shaved, the mouse positioned on its back, and the skin over the femoral vasculature was resected to expose the vasculature of interest. The jugular vein was cannulated using a piece of stretched PE10 tubing filled with saline containing 50 U heparin/mL.
After the mouse was prepared, a 10 μl bolus IV injection of ICG was administered, followed by an IV injection of 50 μl of saline solution. To prepare the bolus, 4 μg/ml of clinical grade ICG (CARDIO-GREEN™) was dissolved in sterile aqueous solvent within one hour of injection. All injections were administered via the cannula established in the jugular vein. The saline was used to flush the line and to ensure passage of an intact bolus through the femoral vasculature, producing a sharp wavefront.
Image analysis was performed using XCAP for Windows 95/98/NT version 1.0 (EPIX Inc., Buffalo Grove, Ill.). The image processing algorithm included the following steps.
1. Selection of vessels of interest. The anatomy of the vasculature varies between animals. Consequently, it was necessary to develop criteria for the selection of an area of interest. This process began with the positioning of the camera. The camera was positioned so that the field of view included the femoral artery and its branches. For the purposes of image analysis, the vessels of interest were the femoral artery and the branches that provided the highest resolution and the greatest degree of branching, usually tertiary or quaternary.
2. Calibration. The positioning of the camera with respect to the area being imaged varied with each animal, and it was therefore necessary to calibrate the camera for every image collected. A small diameter (320 μm) capillary tube (TSP320450; Polymicro Technologies, LLC, Phoenix, Ariz.) filled with ICG was used to calibrate the images. The image processing software includes a built-in calibration function that allows the specification of a set of pixel co-ordinates and the assignment of a user-defined value to the distance between these co-ordinates. The software's edge detector was used to determine the co-ordinates of the edges of the dye fluorescing in the capillary tube. The inner diameter of the capillary tube, in microns, was then assigned to the “length” of the distance between these points. Because this is a built-in feature of the software, all subsequent measurements in all frames of the image were stated in microns, rather than pixel units. […]

Compound: CC(=O)OCC[N+](C)(C)C [Acetylcholine, acetylcholine]
- Vessel Diameter (microns) (Primary vessel, acetylcholine concentration 0.01 μM): 58.2 ± 1.3 microns
- Vessel Diameter (microns) (Primary vessel, acetylcholine concentration 1.0 μM): 58.3 ± 1.5 microns
- Vessel Diameter (microns) (Primary vessel, acetylcholine concentration 10.0 μM): 64.6 ± 1.5 microns
- Vessel Diameter (microns) (Primary vessel, acetylcholine concentration .01 μM): 61.5 ± 1.7 microns
- Vessel Diameter (microns) (Secondary vessel, acetylcholine concentration 0.01 μM): 67.0 ± 1.3 microns
- Vessel Diameter (microns) (Secondary vessel, acetylcholine concentration 1.0 μM): 90.0 ± 1.8 microns
- Vessel Diameter (microns) (Secondary vessel, acetylcholine concentration 10.0 μM): 75.0 ± 1.4 microns
- Vessel Diameter (microns) (Secondary vessel, acetylcholine concentration .01 μM): 75.1 ± 1.2 microns
- Vessel Diameter (microns) (Tertiary vessel, acetylcholine concentration 0.01 μM): 42.9 ± 0.6 microns
- Vessel Diameter (microns) (Tertiary vessel, acetylcholine concentration 1.0 μM): 47.1 ± 1.2 microns
- Vessel Diameter (microns) (Tertiary vessel, acetylcholine concentration 10.0 μM): 42.9 ± 0.8 microns
- Vessel Diameter (microns) (Tertiary vessel, acetylcholine concentration .01 μM): 44.9 ± 0.6 microns
